# Tested on: PYK-2
# Test: Tyrosine phosphorylation of PYK-2 in NIH3T3 cells overexpressing PYK-2
# Assay type: cell-based
# Settings: NIH3T3 cells overexpressing PYK-2 / PYK-2-HA; TPA 6 μM, 15 min, 37° C.
# Description: The PYK-2 cDNA cloned in pLSV was cotransfected with pSV2neo into PC12 cells and NIH3T3 in order to establish stable cell lines. G418 resistant colonies were screened by immunoprecipitating and immunoblotting.
# NIH3T3 cell lines were established that overexpress the PYK-2 and the PYK-2-HA protein. […] The level of phosphorylation is not so high.
compound,measurement,value
"CCCCCCCCCCCCCC(=O)O[C@@H]1[C@@H](C)[C@@]2(O)[C@@H](C=C(CO)C[C@]3(O)C(=O)C(C)=C[C@@H]23)[C@@H]2C(C)(C)[C@]12OC(C)=O [PMA, phorbol 12-myristate 13-acetate]",tyrosine phosphorylation of PYK-2,stronger effect
